Measured values from patent US8906930B2, “Quinazoline derivatives” (Merck Patent GmbH, priority 2009, dated 2014).

These compounds were tested against T1, Recombinant human HSP90α (Homo sapiens, UniProt P07900) (assay: HSP90 radioligand filter binding test ([3H]17AAG competition)). Settings: radioligand [3H]17AAG 0.08 μM; HSP90 1.5 μg/assay; 22° C., 30 min; read-out: HSP90 inhibition IC50.
T1 construct: host or cells: E. coli
Description: The binding of geldanamycin or 17-allylamino-17-demethoxygeldanamycin (17AAG) to HSP90 and competitive inhibition thereof can be utilised in order to determine the inhibitory activity of the compounds according to the invention (Carreras et al. 2003, Chiosis et al. 2002).
In the specific case, a radioligand filter binding test is used. The radioligand used here is tritium-labelled 17-allylaminogeldanamycin, [3H]17AAG. This filter binding test allows a targeted search for inhibitors which interfere with the ATP binding site.
Recombinant human HSP90α (E. coli expressed, 95% purity);
[3H]17AAG (17-allylaminogeldanamycin, [allylamino-2,3-^3H. Specific activity: 1.11×10^12 Bq/mmol (Moravek, MT-1717);
HEPES filter buffer (50 mM HEPES, pH 7.0, 5 mM MgCl2, BSA 0.01%) Multiscreen FB (1 μm) filter plate (Millipore, MAFBNOB 50).
The 96-well microtitre filter plates are firstly irrigated and coated with 0.1% of polyethylenimine.
The test is carried out under the following conditions:
Reaction temperature 22° C.
Reaction time: 30 min., shaking at 800 rpm
50 mM HEPES HCl, pH 7.0, 5 mM MgCl2, 0.01% (w/v) of BSA
At the end of the reaction, the supernatant in the filter plate is removed by suction with the aid of a vacuum manifold (Multiscreen Separation System, Millipore), and the filter is washed twice.
The filter plates are then measured in a beta counter (Microbeta, Wallac) with scintillator (Microscint 20, Packard).
“% of control” is determined from the “counts per minutes” values, and the IC-50 value of a compound is calculated therefrom.
An IC50 of 1 to 10 µM was found for CN1CCN(C(=O)Cc2ccc3nc(N)nc(C(=O)N4Cc5ccccc5C4)c3c2)CC1 [Compound A17, 2-[2-Amino-4-(isoindoline-2-carbonyl)quinazolin-6-yl]-1-(4-methylpiperazin-1-yl)ethanone] in this work.
An IC50 of 1 to 10 µM was found for CN(C)C(=O)C1(c2ccc3nc(N)nc(C(=O)N4Cc5ccccc5C4)c3c2)CC1 [Compound A22, 1-[2-Amino-4-(isoindoline-2-carbonyl)quinazolin-6-yl]-N,N-dimethylcyclopropanecarboxamide] in this work.
An IC50 of 1 to 10 µM was found for NC(=O)Cc1ccc2nc(N)nc(C(=O)N3Cc4ccccc4C3)c2c1 [Compound A3, 2-[2-amino-4-(isoindoline-2-carbonyl)quinazolin-6-yl]acetamide] in this work.
An IC50 of 1 to 10 µM was found for CN(C)C(=O)Cc1ccc2nc(N)nc(C(=O)N3Cc4ccccc4C3)c2c1 [Compound A9, 2-[2-Amino-4-(isoindoline-2-carbonyl)quinazolin-6-yl]-N,N-dimethylacetamide] in this work.
An IC50 of 1 to 10 µM was found for Nc1nc(C(=O)N2Cc3ccccc3C2)c2cc(CC(=O)O)ccc2n1 [Compound A2, 2-[2-Amino-4-(isoindoline-2-carbonyl)quinazolin-6-yl]acetic acid] in this work.
An IC50 of 1 to 10 µM was found for CCNC(=O)Cc1ccc2nc(N)nc(C(=O)N3Cc4ccccc4C3)c2c1 [Compound A6, 2-[2-amino-4-(isoindoline-2-carbonyl)quinazolin-6-yl]-N-ethylacetamide] in this work.
An IC50 of 1 to 10 µM was found for CCN(CCN(C)C)C(=O)C1(c2ccc3nc(N)nc(C(=O)N4Cc5ccccc5C4)c3c2)CC1 [Compound A28, 1-[2-Amino-4-(isoindoline-2-carbonyl)quinazolin-6-yl]-N-(2-dimethylaminoethyl)-N-ethylcyclopropanecarboxamide] in this work.
An IC50 of 1 to 10 µM was found for CN1CCN(Cc2ccc3nc(N)nc(C(=O)N4Cc5ccccc5C4)c3c2)CC1 [Compound A76, [2-amino-6-[(4-methylpiperazin-1-yl)methyl]quinazolin-4-yl]-isoindolin-2-ylmethanone] in this work.
An IC50 of 0.01 to 1 µM was found for CCNC(=O)C(CC(C)C)c1ccc2nc(N)nc(C(=O)N3Cc4ccccc4C3)c2c1 (stereo not shown) [Compound A46, 2-[2-Amino-4-(isoindoline-2-carbonyl)quinazolin-6-yl]-N-ethyl-4-methylpentanamide] in this work.
An IC50 of 1 to 10 µM was found for CN(CCO)C(=O)C1(c2ccc3nc(N)nc(C(=O)N4Cc5ccccc5C4)c3c2)CC1 [Compound A25, 1-[2-Amino-4-(isoindoline-2-carbonyl)quinazolin-6-yl]-N-(2-hydroxyethyl)-N-methylcyclopropanecarboxamide] in this work.
An IC50 of 1 to 10 µM was found for CC(C)(C)NC(=O)Cc1ccc2nc(N)nc(C(=O)N3Cc4ccccc4C3)c2c1 [Compound A7, 2-[2-amino-4-(isoindoline-2-carbonyl)quinazolin-6-yl]-N-tert-butylacetamide] in this work.
An IC50 of 0.01 to 1 µM was found for CCCC(C(=O)NCC)c1ccc2nc(N)nc(C(=O)N3Cc4ccccc4C3)c2c1 (stereo not shown) [Compound A43, 2-[2-Amino-4-(isoindoline-2-carbonyl)quinazolin-6-yl]-N-ethylpentanamide] in this work.
An IC50 of 1 to 10 µM was found for CCN(CCO)C(=O)C1(c2ccc3nc(N)nc(C(=O)N4Cc5ccccc5C4)c3c2)CC1 [Compound A26, 1-[2-Amino-4-(isoindoline-2-carbonyl)quinazolin-6-yl]-N-(2-hydroxyethyl)-N-ethylcyclopropanecarboxamide] in this work.
An IC50 of 1 to 10 µM was found for C=C(CC(C(=O)O)c1ccc2nc(N)nc(C(=O)N3Cc4ccccc4C3)c2c1)C(N)=O (stereo not shown) [Compound A74] in this work.
An IC50 of 0.01 to 1 µM was found for NC(=O)CNC(=O)C1(c2ccc3nc(N)nc(C(=O)N4Cc5ccccc5C4)c3c2)CCC1 [Compound A33, 1-[2-Amino-4-(isoindoline-2-carbonyl)quinazolin-6-yl]-N-(2-amino-2-oxoethyl)cyclobutanecarboxamide] in this work.
An IC50 of 0.01 to 1 µM was found for NC(=O)C(CCC(F)F)c1ccc2nc(N)nc(C(=O)N3Cc4ccccc4C3)c2c1 (stereo not shown) [Compound A4] in this work.
An IC50 of 0.01 to 1 µM was found for CNC(=O)C(CCC(F)F)c1ccc2nc(N)nc(C(=O)N3Cc4ccccc4C3)c2c1 (stereo not shown) [Compound A41, 2-[2-Amino-4-(isoindoline-2-carbonyl)quinazolin-6-yl]-N-methyl-5,5-difluoropentanamide] in this work.
An IC50 of 0.01 to 1 µM was found for CCCCC(C(=O)NCC)c1ccc2nc(N)nc(C(=O)N3Cc4ccccc4C3)c2c1 (stereo not shown) [Compound A44, 2-[2-Amino-4-(isoindoline-2-carbonyl)quinazolin-6-yl]-N-ethylhexanamide] in this work.
An IC50 of 0.01 to 1 µM was found for CCCNC(=O)C(C)(C)c1ccc2nc(N)nc(C(=O)N3Cc4ccccc4C3)c2c1 [Compound A38, 2-[2-Amino-4-(isoindoline-2-carbonyl)quinazolin-6-yl]-N-propyl-2-methylpropanamide] in this work.
An IC50 of 0.01 to 1 µM was found for CC(C)(C)NC(=O)C1(c2ccc3nc(N)nc(C(=O)N4Cc5ccccc5C4)c3c2)CC1 [Compound A20, 1-[2-Amino-4-(isoindoline-2-carbonyl)quinazolin-6-yl]-N-tert-butylcyclopropanecarboxamide] in this work.
An IC50 of 1 to 10 µM was found for Nc1nc(C(=O)N2Cc3ccccc3C2)c2cc(CC(=O)N3CCCC3)ccc2n1 [Compound A13, 2-[2-Amino-4-(isoindoline-2-carbonyl)quinazolin-6-yl]-1-pyrrolidin-1-ylethanone] in this work.
An IC50 of 1 to 10 µM was found for CNC(=O)Cc1ccc2nc(N)nc(C(=O)N3Cc4ccccc4C3)c2c1 [Compound A16, 2-[2-Amino-4-(isoindoline-2-carbonyl)quinazolin-6-yl]-N-methylacetamide] in this work.
An IC50 of 1 to 10 µM was found for CC1CCCN1C(=O)Cc1ccc2nc(N)nc(C(=O)N3Cc4ccccc4C3)c2c1 (stereo not shown) [Compound A14, 2-[2-Amino-4-(isoindoline-2-carbonyl)quinazolin-6-yl]-1-(2-methylpyrrolidin-1-yl)ethanone] in this work.
An IC50 of 0.01 to 1 µM was found for CCNC(=O)C(CCC(C)C)c1ccc2nc(N)nc(C(=O)N3Cc4ccccc4C3)c2c1 (stereo not shown) [Compound A45, 2-[2-Amino-4-(isoindoline-2-carbonyl)quinazolin-6-yl]-N-ethyl-5-methyl-hexanamide] in this work.
An IC50 of 1 to 10 µM was found for CCN(CCO)C(=O)Cc1ccc2nc(N)nc(C(=O)N3Cc4ccccc4C3)c2c1 [Compound A12, 2-[2-Amino-4-(isoindoline-2-carbonyl)quinazolin-6-yl]-N-(2-hydroxyethyl)-N-ethylacetamide] in this work.
An IC50 of 0.01 to 1 µM was found for CC(C)(C)NC(=O)C(C)(C)c1ccc2nc(N)nc(C(=O)N3Cc4ccccc4C3)c2c1 [Compound A35, 2-[2-Amino-4-(isoindoline-2-carbonyl)quinazolin-6-yl]-N-tert-butyl-2-methylpropanamide] in this work.
An IC50 of 1 to 10 µM was found for CCNC(=O)C(CCC(F)F)c1ccc2nc(N)nc(C(=O)N3Cc4ccccc4C3)c2c1 (stereo not shown) [Compound A42, 2-[2-Amino-4-(isoindoline-2-carbonyl)quinazolin-6-yl]-N-ethyl-5,5-difluoropentanamide] in this work.
An IC50 of 0.01 to 1 µM was found for CCNC(=O)C(C)(C)c1ccc2nc(N)nc(C(=O)N3Cc4ccccc4C3)c2c1 [Compound A36, 2-[2-Amino-4-(isoindoline-2-carbonyl)quinazolin-6-yl]-N-ethyl-2-methylpropanamide] in this work.
An IC50 of 0.01 to 1 µM was found for Nc1nc(C(=O)N2Cc3ccccc3C2)c2cc(C3(C(=O)O)CC3)ccc2n1 [Compound A57, 1-[2-Amino-4-(isoindoline-2-carbonyl)quinazolin-6-yl]cyclopropanecarboxylic acid] in this work.
An IC50 of 0.01 to 1 µM was found for CC(C)(C(=O)NCC(N)=O)c1ccc2nc(N)nc(C(=O)N3Cc4ccccc4C3)c2c1 [Compound A39, 2-[2-Amino-4-(isoindoline-2-carbonyl)quinazolin-6-yl]-N-(2-amino-2-oxoethyl)-2-methylpropanamide] in this work.
An IC50 of 1 to 10 µM was found for CN(Cc1cncn1C)C(=O)Cc1ccc2nc(N)nc(C(=O)N3Cc4ccccc4C3)c2c1 [Compound A19] in this work.
An IC50 of 1 to 10 µM was found for CN(CCO)C(=O)Cc1ccc2nc(N)nc(C(=O)N3Cc4ccccc4C3)c2c1 [Compound A11, 2-[2-Amino-4-(isoindoline-2-carbonyl)quinazolin-6-yl]-N-(2-hydroxyethyl)-N-methylacetamide] in this work.
An IC50 of 1 to 10 µM was found for CCN(C)C(=O)C1(c2ccc3nc(N)nc(C(=O)N4Cc5ccccc5C4)c3c2)CC1 [Compound A23, 1-[2-Amino-4-(isoindoline-2-carbonyl)quinazolin-6-yl]-N-ethyl-N-methylcyclopropanecarboxamide] in this work.
Nc1nc(C(=O)N2Cc3ccccc3C2)c2cc(CC(=O)N3CCNCC3)ccc2n1 [Compound A18, 2-[2-amino-4-(isoindoline-2-carbonyl)quinazolin-6-yl]-1-piperazin-1-ylethanone] was tested, and the IC50 was > 10 µM.
An IC50 of 0.01 to 1 µM was found for NC(=O)C1(c2ccc3nc(N)nc(C(=O)N4Cc5ccccc5C4)c3c2)CCC1 [Compound A5, 1-[2-amino-4-(isoindoline-2-carbonyl)quinazolin-6-yl]cyclobutane-carboxamide] in this work.
An IC50 of 1 to 10 µM was found for C=C(CC(C(=O)NCC)c1ccc2nc(N)nc(C(=O)N3Cc4ccccc4C3)c2c1)C(N)=O (stereo not shown) [Compound A50, 2-[2-Amino-4-(isoindoline-2-carbonyl)quinazolin-6-yl]-N′-ethyl-2-methylene-pentanediamide] in this work.
An IC50 of 0.01 to 1 µM was found for CC(C)CNC(=O)C1(c2ccc3nc(N)nc(C(=O)N4Cc5ccccc5C4)c3c2)CCC1 [Compound A34, 1-[2-Amino-4-(isoindoline-2-carbonyl)quinazolin-6-yl]-N-isobutylcyclobutanecarboxamide] in this work.
